Source: paper PMC9602571, “Discovery of a Dual SENP1 and SENP2 Inhibitor” (International Journal of Molecular Sciences, 2022)

Assays:
SENP1 [1] = biological target: T1, SENP1 (Homo sapiens, UniProt Q9P0U3); test: Photo crosslinking experiments with SENP1; type: binding; conditions: competitor 400 µM, probe 56 200 µM
T1 construct: Human recombinant, His6-SENP1 Catalytic Domain; His6 (N); purchased Boston Biochem (Bio-Techne AG) E-700
T1 sequence (Q9P0U3 450-613 limits assumed): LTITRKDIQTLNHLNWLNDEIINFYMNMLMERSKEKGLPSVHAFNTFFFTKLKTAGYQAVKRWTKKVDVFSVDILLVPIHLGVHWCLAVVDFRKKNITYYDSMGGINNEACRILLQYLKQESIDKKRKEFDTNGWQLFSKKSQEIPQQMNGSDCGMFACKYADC
Protocol: A buffer exchange of the commercially available 6 × His-SENP1 Protein (Boston Biochem Cat# E-700) to a 50 mM HEPES, 150 mM NaCl; 0.5 mM EDTA, 1 mM DTT, pH 7.5 was performed. A total of 200 μM of the photo affinity probe 56 with or without competitor molecule 11 (400 μM) was incubated in 10 uM SENP1 for 30 min at 0 °C. Subsequently, the mixtures were irradiated in a Proma UV exposure unit equipped with four 8 Watt lamps (Hitachi FL8BL-8, ~350 nm) for 30 min at 0 °C. Then, 50 µL of the crosslinked proteins were mixed with freshly prepared click mix solution (50 μL; 1 mM CuSO4, 1 mM TCEP, 100 uM THPTA from a 5 mM DMSO stock, dissolved in Milli-Q Water) and a 10 mM stock solution of azide fluor 545 (1 μL) and incubated at 0 °C for 14 h. […] Protein samples for SDS-PAGE were first prepared in 1 × Laemmli sample buffer (diluted from 4 × Laemmli sample buffer (ROTI®Load), and subsequently denatured at 100 °C for 15 min. After SDS-PAGE gel electrophoresis separation, the fluorescence was visualized (Ex. 520 nm, Em. 575 nm) on the SDS PAGE gel using ImageQuant^TM 4000 LAS (GE Healthcare, Chicago, IL, USA). Secondly, the gels were stained with Bio-Safe Coomassie Brilliant Blue G-250 (BioRad) for 60 min. De-staining was performed with 40% (v/v) methanol, 10% (v/v) glacial acetic acid, 50% (v/v) Milli-Q water until protein bands became visible.

SENP1 [2] = biological target: T1, SENP1; test: Fluorogenic SENP1 assay, SUMO1-AMC substrate; type: biochemical
Protocol: Human recombinant, His6-SENP1 Catalytic Domain (Boston Biochem Cat# E-700, Bio-Techne AG, Zug, Switzerland) was prepared in reaction buffer (50 mM HEPES, 150 mM NaCl, 0.5 mM EDTA, 1 mM DTT, pH 7.5, 0.01% CHAPS). To this solution, a 20 mM or 50 mM inhibitor stock solution in DMSO was added and the mixture was incubated for 15 min at ambient temperature. […] The slope was calculated using Excel and the curve fits were performed using GraphPad Prism7 with a four-parameter least-squares fit. The final reaction conditions contained 0.02 nM SENP1 and 300 nM SUMO1/2 or 3-AMC).

UCHL1 = biological target: T2, UCHL1 (Homo sapiens, UniProt P09936); test: UCHL1 activity assay, Ubiquitin-AMC substrate; type: biochemical; conditions: n = 2
T2 construct: purchased SignalChem U22-30H
T2 sequence (P09936 1-223): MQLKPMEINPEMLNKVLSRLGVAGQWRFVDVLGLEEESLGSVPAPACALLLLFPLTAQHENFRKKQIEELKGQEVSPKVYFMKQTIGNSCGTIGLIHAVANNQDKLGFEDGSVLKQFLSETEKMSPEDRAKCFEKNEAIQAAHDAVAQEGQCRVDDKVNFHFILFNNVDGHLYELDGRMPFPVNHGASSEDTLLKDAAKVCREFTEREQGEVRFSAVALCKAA
Protocol: (§1) IC50 measurements were conducted at Reaction Biology Corporation, Malvern, PA, USA, with two replications using 10 concentrations starting at 200 μM with three-fold dilution. Curve fits were performed where the enzyme activities at the highest concentration of compounds were less than 65%. UCHL1 II was used as a control inhibitor. The procedure was performed analogous to the fluorogenic SENP2 assay described in 3.3.2. using the UCHL1 enzyme (SignalChem Cat# U22-30H) and Ubiquitin-AMC substrate (Enzo Cat# BML-SE211-0025). The final reaction conditions contained 0.2 nM UCHL1 and 100 nM Ubiquitin-AMC.

SENP1 [3] = biological target: T1, SENP1; test: Fluorogenic SENP1 assay, SUMO3-AMC substrate; type: biochemical; conditions: n = 2
Protocol: Human recombinant, His6-SENP1 Catalytic Domain (Boston Biochem Cat# E-700, Bio-Techne AG, Zug, Switzerland) was prepared in reaction buffer (50 mM HEPES, 150 mM NaCl, 0.5 mM EDTA, 1 mM DTT, pH 7.5, 0.01% CHAPS). To this solution, a 20 mM or 50 mM inhibitor stock solution in DMSO was added and the mixture was incubated for 15 min at ambient temperature. […] The data were analyzed by taking the slope (signal/time) of the linear portion of measurement. The slope was calculated using Excel and the curve fits were performed using GraphPad Prism7 with a four-parameter least-squares fit. The final reaction conditions contained 0.02 nM SENP1 and 300 nM SUMO1/2 or 3-AMC).

Ataxin-3 = biological target: T3, Ataxin-3 (Homo sapiens, UniProt P54252); test: Ataxin-3 activity assay, Ubiquitin-AMC substrate; type: biochemical; conditions: n = 2
T3 construct: purchased BPS 80399
Protocol: as §1, with “the Ataxin-3” for “the UCHL1”, “enzyme (BPS” for “enzyme (SignalChem”, “Cat# 80399)” for “Cat# U22-30H)”, “contained 500” for “contained 0.2”, “nM Ataxin-3” for “nM UCHL1”

T3 sequence (P54252 whole entry): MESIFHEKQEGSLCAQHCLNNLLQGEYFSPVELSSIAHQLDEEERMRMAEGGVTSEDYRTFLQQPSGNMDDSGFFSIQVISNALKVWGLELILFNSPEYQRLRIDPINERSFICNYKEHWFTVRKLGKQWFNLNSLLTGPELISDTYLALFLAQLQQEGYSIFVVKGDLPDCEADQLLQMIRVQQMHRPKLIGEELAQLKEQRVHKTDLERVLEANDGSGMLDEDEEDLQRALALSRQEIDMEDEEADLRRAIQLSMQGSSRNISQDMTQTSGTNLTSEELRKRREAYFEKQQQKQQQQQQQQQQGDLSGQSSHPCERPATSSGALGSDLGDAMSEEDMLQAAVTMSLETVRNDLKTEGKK

fluorescently labelled band of SENP1 in competition with photo probe 56 (SENP1 [1]): significantly decreased
IC50 (SENP1 [2]; SUMO1-AMC 300 nM, 0.02 nM SENP1, interval in parentheses, read-out: IC50 SENP1): 8.6 µM
IC50 (SENP1 [2]; screening library samples, SUMO1-AMC, read-out: IC50 SENP1 of hit molecules): 5.1 µM
IC50 (UCHL1): 77 µM
IC50 (SENP1 [3]): 59 µM
melting point: 237 °C (dec.)
Compound: O=C(Cn1nnc(-c2ccccc2)n1)N1c2ccccc2NC(=O)C12CCCC2 [Compound 11, 1′-[2-(5-Phenyl-2H-1,2,3,4-tetrazol-2-yl)acetyl]-3′,4′-dihydro-1′H-spiro[cyclopentane-1,2′-quinoxalin]-3′-one]
IC50 (Ataxin-3): 68 µM
